Article PMC4512654 (Analytical biochemistry, 2014)

How the values were obtained:
[1] = molecular target: T1, Activated Factor XIII (FXIIIa) (Homo sapiens, UniProt P00488); assay type: biochemical
T1 sequence (P00488 39-732 limits assumed): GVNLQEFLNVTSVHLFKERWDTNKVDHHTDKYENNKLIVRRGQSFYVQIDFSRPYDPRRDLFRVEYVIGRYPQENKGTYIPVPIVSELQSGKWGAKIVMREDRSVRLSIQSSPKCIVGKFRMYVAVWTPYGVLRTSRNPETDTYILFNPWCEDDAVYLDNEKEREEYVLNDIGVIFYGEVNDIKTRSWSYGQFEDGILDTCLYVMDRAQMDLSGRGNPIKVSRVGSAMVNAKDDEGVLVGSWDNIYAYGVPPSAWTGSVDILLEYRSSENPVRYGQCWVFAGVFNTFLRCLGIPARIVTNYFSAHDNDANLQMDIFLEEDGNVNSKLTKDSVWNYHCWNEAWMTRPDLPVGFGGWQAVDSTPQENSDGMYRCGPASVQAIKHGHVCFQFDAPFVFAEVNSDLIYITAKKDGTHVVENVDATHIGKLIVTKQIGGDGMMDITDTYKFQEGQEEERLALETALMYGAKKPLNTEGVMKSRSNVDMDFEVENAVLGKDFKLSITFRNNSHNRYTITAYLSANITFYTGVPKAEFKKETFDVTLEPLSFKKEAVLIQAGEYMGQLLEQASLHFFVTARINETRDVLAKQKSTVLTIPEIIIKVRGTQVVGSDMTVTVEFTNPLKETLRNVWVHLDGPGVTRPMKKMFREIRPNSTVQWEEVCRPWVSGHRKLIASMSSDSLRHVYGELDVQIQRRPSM

FXIIIa = conditions: coupled uv/vis assay, derived earlier; cited from earlier work

For FQSGQVLAALPRTSR [TAFI (1–15)], the “Km weaker than α2AP (1–15) K12R and S. Aureus Fnb A (100–114)” value [1] was “more than 5 fold”.
In the case of NQEKVSPLTLLKLGN [α2AP (1–15) Q4K], the Km (FXIIIa) is listed as 426 ± 93 µM.
For NQEQVSPLTLLKLGN [α2AP (1–15)], the Km (FXIIIa) is listed as 459 ± 50 µM.
For “SGDQRQVDLIPKKAT [S. Aureus Fnb A (100–114)]”, the “Km better than S. Aureus Fnb A (100–110)” value ([1]; P < 0.05) was “almost two-fold better”.
